In one assay the target is T1, BRAF V600E (Homo sapiens, UniProt P15056, V600E).
T1 construct: expressed in transfected cells
Briefly: Cellular assay of target protein degradation, T-Rex 293 cells stably transfected with HA-BRAF_V600E (HA immunofluorescence, high content imaging). Format: cell-based. A digest of the protocol: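 Cells are plated with 1 ng/mL doxycycline and grown 24 h. Compound is then added (final 1 μM–0.1 nM, 0.1% DMSO) for another 24 h at 37 °C, followed by fixing, HA immunostaining and imaging to obtain DC50 and Dmax.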

The target of the next assay is T2, BRAF G466V (Homo sapiens, UniProt P15056, G466V).
T2 construct: expressed in transfected cells
Description: Cellular assay of target protein degradation, T-Rex 293 cells stably transfected with HA-BRAF G466V (HA immunofluorescence, high content imaging). Format: cell-based. The gist of the method:
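Read-out is HA immunofluorescence by high content imaging, with Hoechst and phalloidin co-staining, giving DC50 and Dmax as a percentage of control. Compound exposure lasts 24 hours at 37° C over 30 nM to 3 pM in 0.1% DMSO, with doxycycline-induced HA-BRAF G466V.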

The mark [1] stands for this setting: half maximal degradation, T-Rex 293 HA-BRAF V600E; read-out: BRaf V600E DC50.
The mark [2] stands for this setting: half maximal degradation, T-Rex 293 HA-BRAF G466V; read-out: BRaf G466V DC50.
Where [3] appears, read: maximum degradation observed, T-Rex 293 HA-BRAF V600E.
Where [4] appears, read: maximum degradation observed, T-Rex 293 HA-BRAF G466V.
Where [5] appears, read: read-out: BRaf V600E DC50; half maximal degradation, T-Rex 293 HA-BRAF V600E.
Setting [6] is: read-out: BRaf G466V DC50; half maximal degradation, T-Rex 293 HA-BRAF G466V.

Like-named read-outs stand apart in the source and are kept apart here. Bounds are passed on as bounds.

T2 sequence (P15056 whole entry G466V): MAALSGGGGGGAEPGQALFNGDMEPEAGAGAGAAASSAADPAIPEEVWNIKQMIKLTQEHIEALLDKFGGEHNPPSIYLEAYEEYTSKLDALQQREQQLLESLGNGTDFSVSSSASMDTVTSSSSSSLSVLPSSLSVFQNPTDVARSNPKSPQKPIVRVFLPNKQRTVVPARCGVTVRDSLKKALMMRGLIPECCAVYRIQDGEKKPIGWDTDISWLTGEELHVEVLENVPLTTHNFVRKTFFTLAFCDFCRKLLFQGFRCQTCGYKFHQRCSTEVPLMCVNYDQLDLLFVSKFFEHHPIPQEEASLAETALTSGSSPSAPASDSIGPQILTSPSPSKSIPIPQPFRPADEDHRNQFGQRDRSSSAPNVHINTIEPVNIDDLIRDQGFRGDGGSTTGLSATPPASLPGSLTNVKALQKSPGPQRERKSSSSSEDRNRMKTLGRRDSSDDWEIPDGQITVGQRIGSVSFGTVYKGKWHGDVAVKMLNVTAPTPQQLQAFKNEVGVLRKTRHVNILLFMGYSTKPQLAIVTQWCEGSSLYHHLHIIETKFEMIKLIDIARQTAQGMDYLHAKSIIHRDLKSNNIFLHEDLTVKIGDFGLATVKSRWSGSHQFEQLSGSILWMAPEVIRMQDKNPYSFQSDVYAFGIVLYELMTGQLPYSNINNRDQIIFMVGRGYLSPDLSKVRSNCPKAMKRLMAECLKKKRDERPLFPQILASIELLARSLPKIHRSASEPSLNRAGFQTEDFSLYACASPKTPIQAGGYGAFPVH
T1 sequence (P15056 whole entry V600E): as the sequence (P15056 whole entry G466V) above, with V466G, V600E counted along it

The DC50 is the concentration at which degradation of the target reaches its halfway point. In the case of `O=C1CCC(N2Cc3cc(N4CCC(CN5CCN(c6ccc(-c7cnc8[nH]cc(C(=O)c9c(F)ccc(NS(=O)(=O)N%10CC[C@@H](F)C%10)c9F)c8c7)cc6)CC(F)(F)C5)CC4)ccc3C2=O)C(=O)N1` (stereo partly drawn) [Compound 315, (3R)-N-{3-(5-{4-[4-({1-[2-(2,6-dioxopiperidin-3-yl)-1-oxo-2,3-dihydro-1H-isoindol-5-yl]piperidin-4-yl}methyl)-6,6-difluoro-1,4-diazepan-1-yl]phenyl}-1H-pyrrolo[2,3-b]pyridine-3-carbonyl)-2,4-difluorophenyl]-3-fluoropyrrolidine-1-sulfonamide], the DC50 at BRAF V600E (setting [1]) is over 500 nM; on BRAF G466V (setting [2]), over 30 nM.
As usually defined, the Dmax is the largest share of the target that was removed. The low end stands for shallow degradation, the high end for deep degradation. Regarding `O=C1CCC(N2Cc3cc(N4CCC(CN5CC(C6(c7ccc(-c8cnc9[nH]cc(C(=O)c%10c(F)ccc(NS(=O)(=O)N%11CC[C@@H](F)C%11)c%10F)c9c8)cc7)CC6)C5)CC4)ccc3C2=O)C(=O)N1` (stereo partly drawn) [Compound 316, (3R)-N-{3-[5-(4-{1-[1-({1-[2-(2,6-dioxopiperidin-3-yl)-1-oxo-2,3-dihydro-1H-isoindol-5-yl]piperidin-4-yl}methyl)azetidin-3-yl]cyclopropyl}phenyl)-1H-pyrrolo[2,3-b]pyridine-3-carbonyl]-2,4-difluorophenyl}-3-fluoropyrrolidine-1-sulfonamide], the values for the half-maximal degradation concentration (DC50) on BRAF V600E (setting [1]) and at BRAF G466V (setting [2]) were 50 to 500 nM and 1 to 10 nM, respectively. In addition, the maximal degradation (Dmax) at BRAF V600E (setting [3]) was under 35%; on BRAF G466V (setting [4]), over 70%.
The matching figures for `O=C1CCC(N2Cc3cc(N4CCN(CCCCc5ccc(-c6cnc7[nH]cc(C(=O)c8c(F)ccc(NS(=O)(=O)N9CC[C@@H](F)C9)c8F)c7c6)cc5)CC4)ccc3C2=O)C(=O)N1` (stereo partly drawn) [Compound 317, (3R)-N-(3-{5-[4-(4-{4-[2-(2,6-dioxopiperidin-3-yl)-1-oxo-2,3-dihydro-1H-isoindol-5-yl]piperazin-1-yl}butyl)phenyl]-1H-pyrrolo[2,3-b]pyridine-3-carbonyl}-2,4-difluorophenyl)-3-fluoropyrrolidine-1-sulfonamide]: 50 to 500 nM, 1 to 10 nM, 35 to 70% and over 70%.
For `O=C1CCC(N2Cc3cc(N4CCN(CCCCCc5ccc(-c6cnc7[nH]cc(C(=O)c8c(F)ccc(NS(=O)(=O)N9CC[C@@H](F)C9)c8F)c7c6)cc5)CC4)ccc3C2=O)C(=O)N1` (stereo partly drawn) [Compound 318, (3R)-N-(3-{5-[4-(5-{4-[2-(2,6-dioxopiperidin-3-yl)-1-oxo-2,3-dihydro-1H-isoindol-5-yl]piperazin-1-yl}penyl)phenyl]-1H-pyrrolo[2,3-b]pyridine-3-carbonyl}-2,4-difluorophenyl)-3-fluoropyrrolidine-1-sulfonamide], the DC50 is 50 to 500 nM at BRAF V600E (setting [1]) and 10 to 30 nM at BRAF G466V (setting [2]). The Dmax at BRAF V600E (setting [3]) and at BRAF G466V (setting [4]) was 35 to 70% each time.
Turning to `O=C1CCC(N2Cc3cc(C4CCN(CC5CC6(C5)CN(c5ccc(-c7cnc8[nH]cc(C(=O)c9c(F)ccc(NS(=O)(=O)N%10CC[C@@H](F)C%10)c9F)c8c7)cc5F)C6)CC4)ccc3C2=O)C(=O)N1` (stereo partly drawn) [Compound 319, (3R)-N-[3-(5-{4-[6-({4-[2-(2,6-dioxopiperidin-3-yl)-1-oxo-2,3-dihydro-1H-isoindol-5-yl]piperidin-1-yl}methyl)-2-azaspiro[3.3]heptan-2-yl]-3-fluorophenyl}-1H-pyrrolo[2,3-b]pyridine-3-carbonyl)-2,4-difluorophenyl]-3-fluoropyrrolidine-1-sulfonamide], the Dmax at BRAF V600E (setting [3]) was 35 to 70%; at BRAF G466V (setting [4]) it was over 70%. Also, the DC50 at BRAF V600E (setting [5]) lay within 5 to 50 nM; on BRAF G466V (setting [6]), 1 to 10 nM.
On to `O=C1CCC(N2Cc3cc(N4CC(CN5CCN(C6(c7ncc(-c8cnc9[nH]cc(C(=O)c%10c(F)ccc(NS(=O)(=O)N%11CC[C@@H](F)C%11)c%10F)c9c8)cn7)CC6)CC5)C4)ccc3C2=O)C(=O)N1` (stereo partly drawn) [Compound 320, (3R)-N-{3-[5-(2-{1-[4-({1-[2-(2,6-dioxopiperidin-3-yl)-1-oxo-2,3-dihydro-1H-isoindol-5-yl]azetidin-3-yl}methyl)piperazin-1-yl]cyclopropyl}pyrimidin-5-yl)-1H-pyrrolo[2,3-b]pyridine-3-carbonyl]-2,4-difluorophenyl}-3-fluoropyrrolidine-1-sulfonamide], for which the DC50 is 50 to 500 nM at BRAF V600E (setting [1]) and 1 to 10 nM at BRAF G466V (setting [2]). The Dmax at BRAF V600E (setting [3]) and at BRAF G466V (setting [4]) was 35 to 70% throughout.
With `O=C1CCC(N2Cc3cc(CCCCN4CC5(C4)CN(c4ccc(-c6cnc7[nH]cc(C(=O)c8c(F)ccc(NS(=O)(=O)N9CC[C@@H](F)C9)c8F)c7c6)cc4)C5)ccc3C2=O)C(=O)N1` (stereo partly drawn) [Compound 321, (3R)-N-(3-{5-[4-(6-{4-[2-(2,6-dioxopiperidin-3-yl)-1-oxo-2,3-dihydro-1H-isoindol-5-yl]butyl}-2,6-diazaspiro[3.3]heptan-2-yl)phenyl]-1H-pyrrolo[2,3-b]pyridine-3-carbonyl}-2,4-difluorophenyl)-3-fluoropyrrolidine-1-sulfonamide], the half-maximal degradation concentration (DC50) on BRAF V600E (setting [1]) lay in the range of 5 to 50 nM; on BRAF G466V (setting [2]) it was 1 to 10 nM. For the same molecule, the values for the maximal degradation (Dmax) on BRAF V600E (setting [3]) and at BRAF G466V (setting [4]) were 35 to 70% and over 70%, respectively.
Take `O=C1CCC(N2Cc3cc(N4CCC(CN5CCCN(c6ccc(-c7cnc8[nH]cc(C(=O)c9c(F)ccc(NS(=O)(=O)N%10CC[C@@H](F)C%10)c9F)c8c7)cc6)CC5)CC4)ccc3C2=O)C(=O)N1` (stereo partly drawn) [Compound 322, (3R)-N-[3-(5-{4-[4-({1-[2-(2,6-dioxopiperidin-3-yl)-1-oxo-2,3-dihydro-1H-isoindol-5-yl]piperidin-4-yl}methyl)-1,4-diazepan-1-yl]phenyl}-1H-pyrrolo[2,3-b]pyridine-3-carbonyl)-2,4-difluorophenyl]-3-fluoropyrrolidine-1-sulfonamide]: the results for the maximal degradation (Dmax) at BRAF V600E (setting [3]) and at BRAF G466V (setting [4]) were under 35% and 35 to 70%, respectively. The DC50 was in the range of 50 to 500 nM on BRAF V600E (setting [5]) and 1 to 10 nM at BRAF G466V (setting [6]).
For `O=C1CCC(N2C(=O)c3ccc(C4CCN(CC5CCN(c6ccc(-c7cnc8[nH]cc(C(=O)c9c(F)ccc(NS(=O)(=O)N%10CC[C@@H](F)C%10)c9F)c8c7)cc6)CC5)CC4)cc3C2=O)C(=O)N1` (stereo partly drawn) [Compound 323, (3R)-N-[3-(5-{4-[4-({4-[2-(2,6-dioxopiperidin-3-yl)-1,3-dioxo-2,3-dihydro-1H-isoindol-5-yl]piperidin-1-yl}methyl)piperidin-1-yl]phenyl}-1H-pyrrolo[2,3-b]pyridine-3-carbonyl)-2,4-difluorophenyl]-3-fluoropyrrolidine-1-sulfonamide], the DC50 on BRAF V600E (setting [1]) fell in the range of 50 to 500 nM; at BRAF G466V (setting [2]) it was 10 to 30 nM. Further, the Dmax at BRAF V600E (setting [3]) is under 35%; on BRAF G466V (setting [4]), 35 to 70%.
The matching figures for `O=C1CCC(N2Cc3cc(N4CCCN(CC5CCN(c6ccc(-c7cnc8[nH]cc(C(=O)c9c(F)ccc(NS(=O)(=O)N%10CC[C@@H](F)C%10)c9F)c8c7)cc6)CC5)CC4)ccc3C2=O)C(=O)N1` (stereo partly drawn) [Compound 324, (3R)-N-[3-(5-{4-[4-({4-[2-(2,6-dioxopiperidin-3-yl)-1-oxo-2,3-dihyrdo-1H-isoindol-5-yl]-1,4-diazepan-1-yl}methyl)piperidin-1-yl]phenyl}-1H-pyrrolo[2,3-b]pyridine-3-carbonyl)-2,4-difluorophenyl]-3-fluoropyrrolidine-1-sulfonamide]: 5 to 50 nM, 1 to 10 nM, under 35% and over 70%.
`O=C1CCC(N2Cc3cc(CCCCN4CCN(c5ccc(-c6cnc7[nH]cc(C(=O)c8c(F)ccc(NS(=O)(=O)N9CC[C@@H](F)C9)c8F)c7c6)cc5)CC4)ccc3C2=O)C(=O)N1` (stereo partly drawn) [Compound 325, (3R)-N-(3-{5-[4-(4-{4-[2-(2,6-dioxopiperidin-3-yl)-1-oxo-2,3-dihydro-1H-isoindol-5-yl]butyl}piperazin-1-yl)phenyl]-1H-pyrrolo[2,3-b]pyridine-3-carbonyl}-2,4-difluorophenyl)-3-fluoropyrrolidine-1-sulfonamide]: the half-maximal degradation concentration (DC50) is 5 to 50 nM at BRAF V600E (setting [1]) and 1 to 10 nM at BRAF G466V (setting [2]). Moreover, the results for the Dmax at BRAF V600E (setting [3]) and at BRAF G466V (setting [4]) were 35 to 70% and over 70%, respectively.
For `O=C1CCC(N2Cc3cc(C4CCN(C5CCN(c6ccc(-c7cnc8[nH]cc(C(=O)c9c(F)ccc(NS(=O)(=O)N%10CC[C@@H](F)C%10)c9F)c8c7)cc6)CC5)CC4)ccc3C2=O)C(=O)N1` (stereo partly drawn) [Compound 326, (3R)-N-{3-[5-(4-{4-[2-(2,6-dioxopiperidin-3-yl)-1-oxo-2,3-dihydro-1H-isoindol-5-yl]-[1,4′-bipiperidin]-1′-yl}phenyl)-1H-pyrrolo[2,3-b]pyridine-3-carbonyl]-2,4-difluorophenyl}-3-fluoropyrrolidine-1-sulfonamide], the DC50 at BRAF V600E (setting [1]) is 5 to 50 nM; at BRAF G466V (setting [2]) it was under 1 nM. Further, the Dmax on BRAF V600E (setting [3]) is 35 to 70%; at BRAF G466V (setting [4]) it was over 70%.
With `O=C1CC[C@H](N2Cc3cc(CC[C@@H](O)CN4CC5(C4)CN(c4ccc(-c6cnc7[nH]cc(C(=O)c8c(F)ccc(NS(=O)(=O)N9CC[C@@H](F)C9)c8F)c7c6)cc4)C5)ccc3C2=O)C(=O)N1` [Compound 327, (3R)-N-{3-[5-(4-{6-[(2R)-4-{2-[(3)S-2,6-dioxopiperidin-3-yl]-1-oxo-2,3-dihydro-1H-isoindol-5-yl}-2-hydroxybutyl]-2,6-diazaspiro[3.3]heptan-2-yl}phenyl)-1H-pyrrolo[2,3-b]pyridine-3-carbonyl]-2,4-difluorophenyl}-3-fluoropyrrolidine-1-sulfonamide], the DC50 at BRAF V600E (setting [1]) lay within 5 to 50 nM; at BRAF G466V (setting [2]), 1 to 10 nM. Besides, the Dmax on BRAF V600E (setting [3]) was 35 to 70%; at BRAF G466V (setting [4]) it was over 70%.

(Values after US12180193B2, “Accelerating fibrosarcoma protein degrading compounds and associated methods of use” (Arvinas Operations, Inc., priority 2020, dated 2024).)
